{"source": "ChEMBL document CHEMBL1148096", "about": "“Ophirapstanol trisulfate, a new biologically active steroid sulfate from the deep water marine sponge Topsentia ophiraphidites” (J Nat Prod, 1994)", "target": "GTPase HRas (Homo sapiens, UniProt P01112)", "sequence (P01112 whole entry)": "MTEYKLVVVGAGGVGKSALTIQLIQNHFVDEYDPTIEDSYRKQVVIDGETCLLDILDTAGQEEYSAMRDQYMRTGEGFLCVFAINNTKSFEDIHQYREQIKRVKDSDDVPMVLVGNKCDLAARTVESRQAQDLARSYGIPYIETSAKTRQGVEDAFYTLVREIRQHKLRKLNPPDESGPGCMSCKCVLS", "assay": "Inhibition of human recombinant p21RAS by GDPX assay"}
{"smiles": "CC(C)C(C)(C)C(C)CC[C@@H](C)[C@H]1CC[C@H]2[C@@H]3C[C@H](OS(=O)(=O)O)C4C[C@H](OS(=O)(=O)O)[C@@H](OS(=O)(=O)O)C[C@]4(C)[C@H]3CC[C@]12C", "note": "(stereo partly specified) [OPHIRAPSTANOL TRISULFATE]", "values": [{"measurement": "IC50", "result": 2550, "unit": "nM"}]}
